Experimental data: article PMC7063992, “Opossum Cathelicidins Exhibit Antimicrobial Activity Against a Broad Spectrum of Pathogens Including West Nile Virus” (Frontiers in Immunology, 2020)
Like-named read-outs stand apart in the source and are kept apart here.

How the values were obtained:
[1] = tested on: HEK293T; assay: Mammalian cell cytotoxicity, WST-1; format: cell-based, human; conditions: positive control for complete cell lysis, concentration not given
Procedure: (§1) Two mammalian cell lines, including human embryonic kidney cells (HEK293T) and human breast cancer cells (MCF7) were cultured in Dulbecco’s modified Eagle’s medium (DMEM; Hyclone^TM, Logan, UT, United States) supplemented with 10% FBS (Hyclone^TM) and 1% penicillin/streptomycin (Hyclone^TM) and incubated at 37°C and 5% CO2 up to 80% confluence. Cellular adherence to the substratum was disrupted using Accutase (Innovative Cell Technologies, San Diego, CA, United States). In total, 1 × 10^4 to 4 × 10^4 cells in each well of a 96-well plate containing 8, 16, 32, and 64 μg/mL of ModoCath peptides were incubated for 24 h at 37°C and 5% CO2. Additionally, HEK293T cells were incubated in the FBS-free medium. Triton X 100 (Sigma Aldrich) was used as a positive control for complete cell lysis, and untreated cells were used as the negative control. After incubation, the medium was removed from the wells, and 10 μL of coloring solution (Cell Proliferation Reagent WST-1^TM; Sigma Aldrich) and 100 μL of DMEM (Hyclone^TM) were added to the wells in accordance with the manufacturer’s protocol. Absorbance was measured for each well at 440 nm (peptide-treated and control) and 650 nm (background) and recorded as the OD, using a microplate reader (xMark^TM spectrophotometer; Bio-Rad). Cell viability was calculated using the following equation:
(§2) (1) CellViability(%)=100×(ODpeptide-ODbackground)/(ODnegative-ODbackground)
(§3) All experiments were performed in triplicate.

[2] = tested on: MCF7; assay: Mammalian cell cytotoxicity, WST-1; format: cell-based, human; conditions: positive control for complete cell lysis, concentration not given
Procedure: as §1, §2, §3

[3] = tested on: Human primary keratinocytes; assay: Viability of keratinocytes, XTT; format: cell-based; conditions: positive control, concentration not given
Text: The Ethics Committee of the Poitiers Hospital approved the use of human skin samples for research studies. All subjects provided written informed consent in accordance with the tenets of the Declaration of Helsinki. Normal abdominal or breast skin samples were obtained from patients undergoing plastic surgery and thoroughly washed with PBS free of calcium and magnesium (PBS; Gibco, Thermo Fisher Scientific, Waltham, MA, United States) after fat removal. The skin samples were minced into fragments of approximately 125 mm^2, using scalpel blades. Skin samples were incubated overnight at 4°C in a dispase solution (25 U/mL; Life Technologies, Carlsbad, CA, United States). Epidermal sheets were removed from the dermis, and keratinocytes were dissociated via trypsin digestion (trypsin-EDTA; Gibco) for 15 min at 37°C. The cell suspension was then filtered through a 280-μm sterile filter. DMEM (Gibco) supplemented with 10% (vol/vol) of FBS (Gibco) was added, and the suspension was centrifuged at 300 × g and 25°C for 10 min. Keratinocytes were seeded at a density of 10^7 cells in 75-cm^2 tissue culture flask in keratinocyte-serum free medium (K-SFM; Invitrogen, Carlsbad, CA, United States) supplemented with bovine pituitary extract (25 μg/mL; Invitrogen) and recombinant epidermal growth factor (EGF) (0.25 ng/mL; Invitrogen). The cultures were incubated at 37°C in a humidified atmosphere with 5% CO2 until 80% confluence and then stored frozen in liquid nitrogen until use. Finally, keratinocytes were seeded in sterile 24-well culture plates at 10^5 cells/well in K-SFM supplemented with bovine pituitary extract and EGF and cultured to 80% confluence. Cells were then starved overnight in K-SFM alone before stimulation.
Primary keratinocytes were cultured in 96-well plates at 4 × 10^4 cells per well in 0.1 mL K-SFM (Invitrogen) up to 80% confluence before being treated with various concentrations of ModoCath peptides for 24 h. Cell viability was assessed using the cell proliferation kit II (XTT; Roche, Basel, Switzerland) in accordance with the manufacturer’s protocol. The XTT labeling mixture was added after 24 h of incubation in the absence or presence of peptides at the indicated concentrations.

[4] = tested on: Staphylococcus aureus ATCC 6538; assay: microbe, parasite or virus in culture; format: cell-based; conditions: S. aureus ATCC 6538, MHB, 37°C 6 h + 2 h, triplicate
Procedure: (§4) Peptides corresponding to the predicted antimicrobial regions of ModoCath1 (ΔModoCath1, N-VKRTKRGARRGL […]-C), ModoCath5 (ΔModoCath5, N-[…]-C), ModoCath6 (ΔModoCath6, N-[…]-C) and PMAP36 (N-[…] PLGCG-C) were synthesized via solid-phase peptide synthesis and purified via high-performance liquid chromatography using a commercial service (GenScript, Piscataway Township, NJ, United States). The MIC of synthesized peptides was determined against a panel of bacteria comprising 3 gram-positive strains, Staphylococcus aureus ATCC 6538 (ATCC, Manassas, VA, United States), Bacillus cereus ATCC 10876, and Enterococcus faecalis ATCC 29212, and 3 gram-negative strains, Escherichia coli ATCC 25922, Pseudomonas aeruginosa ATCC 27853, and Salmonella typhimurium ATCC 14028. Ampicillin (Sigma Aldrich, St. Louis, MO, United States) and gentamicin sulfate (Sigma Aldrich) were used as controls for antimicrobial activity. The MIC was determined using a colorimetric method specified by the Microbial Viability Assay Kit-WST (Dojindo, Kumamoto, Japan) in accordance with the manufacturer’s protocol and the Clinical and Laboratory Standards Institute (CLSI) guidelines (2018). Briefly, four colonies of each bacterium were inoculated into 5 mL Luria-Bertani (LB) broth medium at 37°C for 4 to 6 h. The cells were washed with sterile saline (0.9% NaCl) twice and seeded in a single well of a 96-well plate at the cell density of 10^5 CFU/well. Subsequently, 180 μL/well of fresh Mueller-Hinton broth (MHB) was added to the plate. Different concentrations of each peptide and reference antibiotics were serially diluted in 10 μL of MHB and added to each well. The plate was incubated at 37°C for 6 h. Cation-adjusted MH broth (CAMHB) was used to culture E. faecalis. Subsequently, 10 μL of the coloring reagent was added, and cells were incubated at 37°C for 2 h. UV absorbance was measured for each well at 450 nm, using a microplate spectrophotometer (xMark spectrophotometer; Bio-Rad, Hercules, CA, United States). MIC values were determined when the difference in the optical density (OD) between treatments and blanks (media and coloring reagent only) decreased to < 0.05. Experiments were conducted in triplicate. […] The pH conditions were achieved by using acetic acid (Sigma Aldrich).

[5] = tested on: Bacillus cereus ATCC 10876; assay: microbe, parasite or virus in culture; format: cell-based; conditions: B. cereus ATCC 10876, MHB, 37°C 6 h + 2 h, triplicate
Procedure: as §4

[6] = tested on: Escherichia coli ATCC 25922; assay: microbe, parasite or virus in culture; format: cell-based; conditions: E. coli ATCC 25922, MHB, 10^5 CFU/well, 37°C 6 h + 2 h with coloring reagent, OD 450 nm, triplicate
Procedure: as §4

[7] = tested on: Pseudomonas aeruginosa ATCC 27853; assay: microbe, parasite or virus in culture; format: cell-based; conditions: P. aeruginosa ATCC 27853, MHB, 37°C 6 h + 2 h, triplicate
Procedure: as §4

[8] = tested on: Salmonella typhimurium ATCC 14028; assay: microbe, parasite or virus in culture; format: cell-based; conditions: S. typhimurium ATCC 14028, MHB, 37°C 6 h + 2 h, triplicate
Procedure: as §4

[9] = tested on: Enterococcus faecalis ATCC 29212; assay: microbe, parasite or virus in culture; format: cell-based; conditions: E. faecalis ATCC 29212, CAMHB, 37°C 6 h + 2 h, triplicate
Procedure: as §4

[10] = Staphylococcus aureus, ATCC6538, read-out: MIC
[11] = Bacillus cereus, ATCC10876, read-out: MIC
[12] = Escherichia coli, ATCC25922, read-out: MIC

Row | Compound | MIC [4, 10] [µg/mL] | MIC [5, 11] [µg/mL] | MIC [6, 12] [µg/mL] | MIC [4] | MIC [5] | MIC [6] | also measured
1 | Triton X-100 [reference compound] | – | – | – | – | – | – | Cell viability ± SD [1]: 11.6 ± 2.5%; Cell viability ± SD [2]: 11.4 ± 0.4%; Cell viability ± SD [3]: 8.2 ± 0.4%
2 | CN[C@H](CC(C)C)C(=O)N[C@H]1C(=O)N[C@@H](CC(N)=O)C(=O)N[C@H]2C(=O)N[C@H]3C(=O)N[C@H](C(=O)N[C@H](C(=O)O)c4cc(O)cc(O)c4-c4cc3ccc4O)[C@H](O)c3ccc(c(Cl)c3)Oc3cc2cc(c3O[C@@H]2O[C@H](CO)[C@@H](O)[C@H](O)[C@H]2O[C@H]2C[C@](C)(N)[C@H](O)[C@H](C)O2)Oc2ccc(cc2Cl)[C@H]1O [Vancomycin] | 5 | 4 | 32 | – | – | – | –
3 | CC1(C)S[C@@H]2[C@H](NC(=O)[C@H](N)c3ccccc3)C(=O)N2[C@H]1C(=O)O [Ampicillin, reference compound] | 1 | 16 | 1 | – | – | – | MIC ([7]; Pseudomonas aeruginosa, ATCC27853, read-out: MIC): > 128 µg/mL; MIC ([8]; Salmonella enterica, read-out: MIC): 1 µg/mL; MIC ([9]; Enterococcus faecalis, ATCC29212, read-out: MIC): 2 µg/mL
4 | Nisin | – | – | – | 15 (4.47) μg/mL | 32 (9.54) μg/mL | > 32(9.54) μg/mL | –
5 | gentamicin sulfate [Gentamycin, reference compound] | – | – | – | 1 (2.09) μg/mL | 1 (2.09) μg/mL | 1 (2.09) μg/mL | MIC [7]: 1 (2.09) μg/mL; MIC [8]: 1 (2.09) μg/mL; MIC [9]: 5 (10.45) μg/mL
